Data: ChEMBL document CHEMBL3616475 (Bioorg Med Chem, 2015)
Activity calls are given as the source filed them. No cut-off for these calls is given here.

What was measured:
Adenosine receptor A1 [1] = target: T1, Adenosine receptor A1 (Rattus norvegicus, UniProt P25099)
T1 sequence (P25099 whole entry): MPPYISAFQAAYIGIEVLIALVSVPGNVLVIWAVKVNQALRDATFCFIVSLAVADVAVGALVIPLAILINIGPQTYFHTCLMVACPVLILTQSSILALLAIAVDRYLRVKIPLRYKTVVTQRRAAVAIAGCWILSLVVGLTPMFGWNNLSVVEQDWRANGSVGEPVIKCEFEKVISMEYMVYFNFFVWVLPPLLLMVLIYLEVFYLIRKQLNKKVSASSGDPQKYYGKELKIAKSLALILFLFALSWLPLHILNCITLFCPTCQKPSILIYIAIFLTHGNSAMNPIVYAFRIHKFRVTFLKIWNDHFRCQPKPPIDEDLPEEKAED
Description: Displacement of [3H]-DPCPX from Adenosine A1 receptor in Sprague-Dawley rat brain cortical membranes in absence of GTP

Adenosine receptor A2a [2] = target: T2, Adenosine receptor A2a (Rattus norvegicus, UniProt P30543); test: Displacement of [3H]-NECA from Adenosine A2A receptor in Sprague-Dawley rat striatal membranes; set-up: species or system Striatum, Membrane
T2 sequence (P30543 whole entry): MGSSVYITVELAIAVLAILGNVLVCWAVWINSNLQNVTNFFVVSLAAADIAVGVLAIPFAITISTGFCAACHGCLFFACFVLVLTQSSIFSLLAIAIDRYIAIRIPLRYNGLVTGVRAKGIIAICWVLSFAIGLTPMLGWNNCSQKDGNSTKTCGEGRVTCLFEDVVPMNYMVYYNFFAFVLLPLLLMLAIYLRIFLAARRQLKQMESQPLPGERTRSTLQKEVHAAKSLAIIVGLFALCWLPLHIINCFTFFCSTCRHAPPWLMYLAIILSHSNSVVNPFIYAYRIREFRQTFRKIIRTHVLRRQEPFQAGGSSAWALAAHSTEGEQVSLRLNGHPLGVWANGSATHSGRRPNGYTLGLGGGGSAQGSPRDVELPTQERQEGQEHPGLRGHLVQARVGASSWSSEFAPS

Adenosine receptor A1 [3] = target: T1, Adenosine receptor A1; test: Displacement of [3H]-DPCPX from Adenosine A1 receptor in Sprague-Dawley rat whole brain membranes; set-up: species or system Membrane
Adenosine receptor A1 [4] = target: T1, Adenosine receptor A1; remark: listed apart in the source
Description: Displacement of [3H]-DPCPX from Adenosine A1 receptor in Sprague-Dawley rat brain cortical membranes in presence of 0.1 mM GTP

Rattus norvegicus [5] = species on record: Rattus norvegicus; test: Selectivity ratio of Ki for Adenosine A2A receptor in Sprague-Dawley rat striatal membranes to Ki for Adenosine A1 receptor in Sprague-Dawley rat whole brain membranes
Adenosine receptor A1 [6] = target: T1, Adenosine receptor A1; remark: listed apart in the source
Description: Displacement of [3H]-DPCPX from Adenosine A1 receptor in Sprague-Dawley rat whole brain membranes in absence of GTP

Adenosine receptor A1 [7] = target: T1, Adenosine receptor A1; remark: listed apart in the source
Description: Displacement of [3H]-DPCPX from Adenosine A1 receptor in Sprague-Dawley rat whole brain membranes in presence of 0.1 mM GTP

Rattus norvegicus [8] = test: Inhibition of CPA-induced hypolocomotion in Sprague-Dawley rat at 0.03 to 0.1 mg/kg, ip administered 25 mins prior to CPA addition measured for 20 mins starting from 5 mins post habituation; type: functional, organism-based
Rattus norvegicus [9] = test: Inhibition of CPA-induced hypolocomotion in Sprague-Dawley rat at 0.06 to […], ip administered 25 mins prior to CPA addition measured for 20 mins starting from 5 mins post habituation
Adenosine receptor A2a [10] = target: T2, Adenosine receptor A2a; test: Binding affinity to Adenosine A2A receptor in rat brain tissue by radioligand displacement assay; type: tissue-based

Row | Compound | Ki (Adenosine receptor A2a [2]) [nM] | Ki (Adenosine receptor A1 [3]) [nM] | Ratio Ki (Rattus norvegicus [5]) | also measured
1 | CCn1c(=O)c2c(nc(COc3ccccc3)n2CC)n(CC)c1=O | 2640 | 416 | 6 | Ki (Adenosine receptor A1 [1]): 356 nM; Ki (Adenosine receptor A1 [4]): 368 nM; Ki (Adenosine receptor A1 [6]): 416 nM; Ki (Adenosine receptor A1 [7]): 397 nM
2 | Cn1c(=O)c2c(nc(CCc3ccccc3)n2C)n(C)c1=O | 4950 | 5740 | 0.86 | 
3 | Cn1c(=O)c2c(nc(CCCc3ccccc3)n2C)n(C)c1=O | 6800 | 1550 | 4 | 
4 | CCn1c(COc2ccccc2)nc2c1c(=O)n(C)c(=O)n2C | 2250 | 1100 | 2 | 
5 | CCn1c(=O)c2c(nc(COc3ccccc3)n2C)n(CC)c1=O | 1910 | 874 | 2 | 
6 | CCn1c(=O)c2c(nc(CCc3ccccc3)n2C)n(CC)c1=O | 2360 | 816 | 3 | 
7 | CCn1c(CCCc2ccccc2)nc2c1c(=O)n(C)c(=O)n2C | 4930 | 259 | 19 | 
8 | CCCn1c(=O)c2[nH]c(C3CCCC3)nc2n(CCC)c1=O |  |  |  | inhibition (Rattus norvegicus [8]): Active
9 | CCn1c(=O)c2c(nc(CCCc3ccccc3)n2CC)n(CC)c1=O | 2710 | 164 | 17 | inhibition (Rattus norvegicus [9]): Active; Ki (Adenosine receptor A1 [1]): 139 nM; Ki (Adenosine receptor A1 [4]): 258 nM; Ki (Adenosine receptor A1 [6]): 164 nM; Ki (Adenosine receptor A1 [7]): 209 nM
10 | Cn1c(=O)c2c(nc(-c3ccccc3)n2C)n(C)c1=O |  |  |  | Ki (Adenosine receptor A2a [10]): 27000 nM
11 | CCn1c(=O)c2c(nc(CCCc3ccccc3)n2C)n(CC)c1=O | 3930 | 1240 | 3 | 
12 | CCn1c(CCc2ccccc2)nc2c1c(=O)n(C)c(=O)n2C | 3110 | 1090 | 3 | 
13 | Cn1c(=O)c2c(nc(COc3ccccc3)n2C)n(C)c1=O | 2370 | 3090 | 0.77 | 
14 | CCn1c(=O)c2c(nc(CCc3ccccc3)n2CC)n(CC)c1=O | 4970 | 636 | 8 | Ki (Adenosine receptor A1 [1]): 543 nM; Ki (Adenosine receptor A1 [4]): 681 nM; Ki (Adenosine receptor A1 [6]): 636 nM; Ki (Adenosine receptor A1 [7]): 763 nM
15 | OC[C@H]1O[C@@H](n2cnc3c(NC4CCCC4)ncnc32)[C@H](O)[C@@H]1O [N6-CYCLOPENTYLADENOSINE] | 331 |  |  | 
